Laboratory results: patent publication US8623832B2, “Peptide compositions that bind TLR-4” (The Board of Regents of the University of Oklahoma, priority 2011, dated 2014)
“Also recorded” adds a separate entry of the source. Where no end group is shown, it is not given here.

Legend:
[1] = target: T1, recombinant TLR4-MD2 protein (Homo sapiens, UniProt O00206); assay: Microwell-based binding to immobilized recombinant TLR4-MD2 protein; details: for binding to surface-bound TLR4-MD2 protein: 0.25 μg TLR4-MD2 per well, detected with SP-A-specific antibody
T1 construct: extracellular domain of human TLR4 protein (Glu 24-Lys 631 amino acids); 10x histidine tag (C); signal peptide from human CD33 (N); purchased R&D Systems, MN; host or cells: mouse myeloma cell line NS0
T1 sequence (O00206 24-631): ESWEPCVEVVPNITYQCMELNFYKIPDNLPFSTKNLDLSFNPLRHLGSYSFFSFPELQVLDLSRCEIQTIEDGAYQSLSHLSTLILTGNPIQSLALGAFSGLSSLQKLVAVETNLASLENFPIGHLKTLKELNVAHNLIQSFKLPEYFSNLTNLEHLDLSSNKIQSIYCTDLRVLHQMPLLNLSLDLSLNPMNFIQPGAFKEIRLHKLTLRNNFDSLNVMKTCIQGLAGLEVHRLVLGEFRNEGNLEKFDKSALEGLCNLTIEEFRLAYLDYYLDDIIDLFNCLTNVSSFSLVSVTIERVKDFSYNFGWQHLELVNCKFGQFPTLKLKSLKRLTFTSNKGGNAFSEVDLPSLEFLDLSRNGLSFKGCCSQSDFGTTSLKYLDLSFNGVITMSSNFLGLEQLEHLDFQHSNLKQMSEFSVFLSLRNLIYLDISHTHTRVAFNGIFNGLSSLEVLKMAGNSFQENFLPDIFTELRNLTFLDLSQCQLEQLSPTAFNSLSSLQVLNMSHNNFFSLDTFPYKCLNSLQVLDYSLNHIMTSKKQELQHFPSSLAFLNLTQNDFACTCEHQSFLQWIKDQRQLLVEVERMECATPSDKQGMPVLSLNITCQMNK
T1 sequence (Q9Y6Y9 17-160 partner limits assumed): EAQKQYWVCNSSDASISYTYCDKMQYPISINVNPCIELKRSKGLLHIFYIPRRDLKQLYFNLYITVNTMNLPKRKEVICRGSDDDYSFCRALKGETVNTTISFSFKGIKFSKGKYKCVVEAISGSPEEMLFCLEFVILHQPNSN
Excerpt: Interaction between purified baboon lung SP-A, SP-A-peptides and TLR4-MD2 proteins using a microwell-based method: The binding between the purified baboon lung SP-A, SP-A-peptides and recombinant TLR4-MD2 and MD2 proteins was studied in vitro using a microwell-based method (Awasthi et al., 2004). The soluble, recombinant TLR4-MD2 protein (R&D Systems, MN) consisted of a mixture of recombinant human-TLR4 and MD2 proteins. The recombinant extracellular domain of human TLR4 protein (Glu 24-Lys 631 amino acids), was joined with a DNA sequence encoding the signal peptide from human CD33 and a 10× histidine tag at the C-terminus (Accession # O00206). For MD2 protein, a DNA sequence encoding the signal peptide from human CD33 was joined with the mature region of human MD-2 (mature region, Glu 17-Asn 160 amino acids) and a 10× histidine tag at the C-terminus (Accession # Q9Y6Y9). The chimeric proteins were expressed in a mouse myeloma cell line, NS0 (R&D Systems, MN). The proteins were obtained from the manufacturer in carrier-free condition and reconstituted in PBS containing 0.1% low-endotoxin BSA (MP Biomedicals, OH). MD2, an adaptor molecule for TLR4, is expressed by immune cells, and is known to bind TLR4 in a non-covalent manner (Jain et al., 2008). Thus, the binding of SP-A to the recombinant MD2 protein (R&D Systems, MN) was also studied.
For the binding assay, microwell ultra-high-protein binding Immunolon 4HBX strips (Thermo Scientific, MA) were coated with soluble recombinant-TLR4-MD2 protein or MD2 protein (R&D Systems, 250 ng per well, diluted in 0.1 M NaHCO3, pH 9.6) overnight at room temperature. The plates were washed three times, and non-specific sites were blocked for 2 h at room temperature using phosphate buffered saline containing 0.1% triton-X 100 and 3% nonfat milk (Buffer A). […] The immune-complex was detected using 3,3′,5,5′-tetramethylbenzidine (TMB) substrate system (Sigma-Aldrich, MO). The reaction was stopped with 2 N H2SO4 and read at 405 and/or 450 nm spectrophotometrically (Molecular Devices, CA).

TLR4 = TLR4 expression in JAWS II dendritic cells by immunocytochemistry / confocal microscopy; type: cell-based, mouse
Description: TLR4 expression by immunocytochemistry: The JAWS II-DCs were seeded at a density of 25,000 cells per well of an 8-well chamber slide (Nalge Nunc international, New York, USA). Post-LPS (100 ng/ml) treatment with SPA4 peptide (1 and 10 μM; SEQ ID NO:3) followed, and the cells were fixed for 20 minutes with 3.5% paraformaldehyde prepared in PBS on ice. Permeablization was carried out for 20 minutes on ice with Alpha-MEM medium containing 10% FBS and 0.05% saponin and 10 mM HEPES (Inaba et al., 1998). The cells were washed with PBS supplemented with 1% FBS and 0.05% saponin (wash buffer). Non-specific binding sites were blocked using PBS containing 10% normal mouse serum (Sigma, St Louis, Mo.) for 1 hour at room temperature in a humidified chamber. A rabbit polyclonal antibody to mouse TLR4 (Abcam, Cambridge, Mass.) was added to the cells at a dilution of 1:50 and incubated overnight at 4° C. in a humidified chamber. […]
SPA4 peptide (SEQ ID NO:3) inhibits the LPS-induced TLR4 expression in dendritic cells and SW480 intestinal (colonic) epithelial cells. […] First, it was determined if the SPA4 peptide inhibits LPS-induced expression of TLR4 in these cells. […]

[2] = test system: LPS-induced acute inflammation; assay: Mouse model of LPS-inflammation (endotoxic shock-like symptoms, TNF-α); type: in vivo, Balb/c Mice; details: mice; for LPS-induced clinical symptoms (endotoxic shock-like): LPS 0.1 μg/g body weight i.p., SPA4 2.5 μg/g, SP-A 0.5 μg/g; for LPS-induced circulatory TNF-α amounts: LPS 0.1 μg/g body weight, serum, ELISA; for LPS-induced TNF-α levels in lung tissue homogenates: LPS 1 μg/g or 15 μg/g body weight, treated at 1 hour, sacrificed at 5 hours
Description: In Example 5, the efficacy of SPA4 peptide in inhibiting LPS-induced acute inflammation was investigated in a mouse model of LPS-inflammation. Balb/c Mice were challenged with E. coli 0111:B4 highly purified, low protein-derived LPS (0.1 or 1 or 15 μg/g body wt) via an intraperitoneal route, one hour prior to treatment with SPA4 peptide (2.5 μg/g body weight) or full-length purified SP-A (0.5 μg/g body weight) via an intraperitoneal route. The mice were monitored for endotoxic-shock like clinical symptoms (including, but not limited to, ruffled fur, eye exudates, diarrhea, prostration, and lack of reactivity), and these symptoms were scored on the basis of severity from 0 to 3, and average clinical symptom indices were calculated for each animal based on the symptom grades (Metkar et al., 2007). Endotoxic-shock like clinical symptoms were noted (at 5 or 7 hours), and mice were sacrificed at different time-intervals after LPS challenge. Major organs and blood specimens were collected. Secreted amounts of TNF-α cytokine were measured in serum and lung tissue homogenates by ELISA method.

| Substance | binding to surface-bound TLR4-MD2 protein [1] | efficiency of binding to TLR4-MD2 protein compared with whole native SP-A protein ([1]; SPA4 2-20 μg versus SP-A 2-10 μg) | basal TLR4 expression (TLR4) | LPS-induced TLR4 expression (TLR4; post-LPS treatment, p<0.05) | LPS-induced clinical symptoms (endotoxic shock-like) [2] | LPS-induced circulatory TNF-α amounts [2] | LPS-induced TNF-α levels in lung tissue homogenates [2] |
| --- | --- | --- | --- | --- | --- | --- | --- |
| GDFRYSDGTPVNYTNWYRGE [SPA4, GDFRYSDGT PVNYTNWYRGE] | binds to TLR4-MD2 protein | less efficient | reduced the basal TLR4 expression | suppressed significantly; also recorded: reduced LPS-induced TLR4 expression to a basal level | inhibit | reduced | reduced |
| SP-A: native surfactant protein-A purified from bronchioalveolar lavage fluid of a normal healthy adult baboon (MWLCPLALTLTLMAASGAACEVKDVCVGSPGIPGTPGSHGLPGRDGRDGVKGDPGPP; listed as Papio cynocephalus) | showed binding |  |  |  | inhibit | reduced | low |
